Measured values taken from PMC2766550 (Peptides, 2009).
Square brackets hold non-standard residues; d marks the D form. Ends that are not written are not given here. Peptide text beside a SMILES is read from it. * marks the point of attachment. dPhe(F5) = N[C@H](Cc1c(F)c(F)c(F)c(F)c1F)C(=O)O; pGlu = O=C1CC[C@@H](C(=O)O)N1; Nle = CCCC[C@H](N)C(=O)O; βAla = NCCC(=O)O; NHPr = CCCN*

Legend:
hBRS-3 receptor = molecular target: T1, hBRS-3 receptor (Homo sapiens, UniProt P32247); assay: Whole cell radioligand binding, hBRS-3 transfected Balb 3T3 cells
T1 sequence (P32247 1-399): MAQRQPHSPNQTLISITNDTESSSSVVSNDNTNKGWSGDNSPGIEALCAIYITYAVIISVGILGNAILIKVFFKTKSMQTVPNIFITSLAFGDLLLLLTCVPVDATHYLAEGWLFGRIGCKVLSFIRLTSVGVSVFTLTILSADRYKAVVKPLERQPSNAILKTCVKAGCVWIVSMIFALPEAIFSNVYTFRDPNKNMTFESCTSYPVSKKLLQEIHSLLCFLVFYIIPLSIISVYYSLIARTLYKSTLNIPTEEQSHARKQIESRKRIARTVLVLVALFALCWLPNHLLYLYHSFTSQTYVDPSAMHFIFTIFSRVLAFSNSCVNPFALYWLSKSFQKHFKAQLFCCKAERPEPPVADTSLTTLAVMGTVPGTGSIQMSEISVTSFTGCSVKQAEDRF

hNMB-receptor [1] = molecular target: T2, hNMB-receptor (Homo sapiens, UniProt P28336); assay: Whole cell radioligand binding, hNMB-receptor transfected Balb 3T3 cells; details: IC50 hNMB-R Balb-3T3, hNMB-receptor transfected Balb 3T3 cells; 125I-[D-Tyr0]NMB, 1 h, 22°C; mean ± S.E.
hGRP-receptor [2] = molecular target: T3, hGRP-receptor (Homo sapiens, UniProt P30550); assay: Whole cell radioligand binding, HuTu-80 cells
hNMB-receptor [3] = molecular target: T2, hNMB-receptor; assay: Whole cell radioligand binding, hNMB-receptor transfected NCI-H1299 cells
hGRP-receptor [4] = molecular target: T3, hGRP-receptor; assay: [3H]inositol phosphate generation, hGRP-receptor transfected Balb 3T3 cells; assay type: cell-based
hGRP-receptor [5] = molecular target: T3, hGRP-receptor; assay: [3H]inositol phosphate generation, HuTu-80 cells; assay type: cell-based
hNMB-receptor [6] = molecular target: T2, hNMB-receptor; assay: cell-based

T3 sequence (P30550 whole entry): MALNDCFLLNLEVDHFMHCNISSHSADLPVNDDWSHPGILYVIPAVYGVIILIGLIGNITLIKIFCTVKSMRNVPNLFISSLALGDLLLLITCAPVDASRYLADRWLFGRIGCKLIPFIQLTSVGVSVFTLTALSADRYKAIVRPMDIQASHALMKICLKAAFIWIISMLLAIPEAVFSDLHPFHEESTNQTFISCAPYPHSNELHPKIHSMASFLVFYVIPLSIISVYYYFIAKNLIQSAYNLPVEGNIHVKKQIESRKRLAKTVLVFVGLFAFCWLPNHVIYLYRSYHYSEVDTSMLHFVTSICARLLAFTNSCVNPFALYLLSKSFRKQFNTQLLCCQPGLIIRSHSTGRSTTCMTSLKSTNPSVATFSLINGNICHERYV
T2 sequence (P28336 whole entry): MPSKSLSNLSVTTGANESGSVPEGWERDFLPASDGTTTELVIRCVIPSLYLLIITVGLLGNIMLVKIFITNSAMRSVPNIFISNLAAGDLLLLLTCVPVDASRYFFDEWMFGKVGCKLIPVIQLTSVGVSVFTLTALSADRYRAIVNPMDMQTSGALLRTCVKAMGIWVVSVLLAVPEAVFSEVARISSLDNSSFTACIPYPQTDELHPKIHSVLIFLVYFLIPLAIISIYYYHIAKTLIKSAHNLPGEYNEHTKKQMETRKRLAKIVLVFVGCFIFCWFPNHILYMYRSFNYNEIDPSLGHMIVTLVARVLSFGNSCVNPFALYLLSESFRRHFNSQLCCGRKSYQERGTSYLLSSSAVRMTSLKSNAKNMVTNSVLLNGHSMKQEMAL

Row | Compound | fold lower affinity for hBRS3 than for the ligand's own receptor (hBRS-3 receptor) | IC50 (hNMB-receptor [1]) [nM] | IC50 (hBRS-3 receptor) [nM] | IC50 (hGRP-receptor [2]) [nM] | IC50 (hNMB-receptor [3]) [nM] | IC50 (hGRP-receptor [4]) [nM] | IC50 (hGRP-receptor [5]) [nM] | EC50 (hNMB-receptor [6]) [nM] | IC50 (hNMB-receptor [6]) [nM] | [3H]IP NCI-H1299 (hNMB-R) EC50 (hNMB-receptor [6]; stimulation of [3H]IP generation)
1 | CSCC[C@H](NC(=O)[C@H](CC(C)C)NC(=O)[C@H](Cc1c[nH]cn1)NC(=O)CNC(=O)[C@@H](NC(=O)[C@H](C)NC(=O)[C@H](Cc1c[nH]c2ccccc12)NC(=O)[C@H](Cc1c[nH]cn1)NC(=O)[C@H](CC(N)=O)NC(=O)CNC(=O)[C@H](CCCNC(=N)N)NC(=O)[C@@H]1CCCN1C(=O)[C@H](Cc1ccc(O)cc1)NC(=O)[C@H](CCSC)NC(=O)[C@H](CCCCN)NC(=O)[C@@H](NC(=O)[C@H](CC(C)C)NC(=O)[C@@H](NC(=O)[C@@H](NC(=O)CNC(=O)CNC(=O)CNC(=O)[C@H](C)NC(=O)[C@@H]1CCCN1C(=O)[C@H](CC(C)C)NC(=O)[C@@H]1CCCN1C(=O)[C@@H](N)C(C)C)[C@@H](C)O)C(C)C)[C@@H](C)O)C(C)C)C(N)=O [GRP, gastrin-releasing peptide, reference compound] | > 10,000 fold | – | – | – | – | – | – | – | – | –
2 | CC(C)C[C@H](NC(=O)[C@H](CC(C)C)NC(=O)[C@@H](Cc1ccccc1)NC(=O)CNC(=O)[C@@H](NC(=O)[C@H](C)NC(=O)[C@H](Cc1c[nH]c2ccccc12)NC(=O)[C@H](CCC(N)=O)NC(=O)[C@H](CC(N)=O)NC(=O)CNC(=O)[C@H](CC(C)C)NC(=O)[C@H](CCCNC(=N)N)NC(=O)[C@H](CCC(N)=O)NC(=O)[C@@H]1CCC(=O)N1)C(C)C)C(N)=O [Peptide 1, [D-Phe^12, Leu^14]Bn] ([pGlu]QRLGNQWAVG[dF]LL-NH2) | – | > 10000 | > 10000 | – | – | – | – | – | – | –
3 | CSCC[C@H](NC(=O)[C@H](CC(C)C)NC(=O)[C@@H](Cc1ccccc1)NC(=O)CNC(=O)[C@@H](NC(=O)[C@H](C)NC(=O)[C@H](Cc1c[nH]c2ccccc12)NC(=O)[C@H](CCC(N)=O)NC(=O)[C@H](CC(N)=O)NC(=O)CNC(=O)[C@H](Cc1ccc(O)cc1)NC(=O)[C@H](CCCNC(=N)N)NC(=O)[C@H](CCC(N)=O)NC(=O)[C@@H]1CCC(=O)N1)C(C)C)C(N)=O [Peptide 2, [Tyr^4, D-Phe^12]Bn] | – | 3090 ± 320 | > 10000 | 912 ± 76 | 1860 ± 60 | > 10000 | 8130 ± 226 | 103 ± 5 | – | –
4 | CC(C)C[C@H](NC(=O)[C@H](CC(C)C)NC(=O)[C@@H](Cc1c[nH]c2ccccc12)NC(=O)[C@H](Cc1ccccc1)NC(=O)[C@@H](Cc1c[nH]c2ccccc12)NC(=O)[C@H](CCC(N)=O)NC(=O)[C@H](CCC(N)=O)NC(=O)[C@@H]1CCCN1C(=O)[C@H](CCCCN)NC(=O)[C@@H]1CCCN1C(=O)[C@H](N)CCCN=C(N)N)C(N)=O [Peptide 3, [D-Arg^1, D-Trp^7,9, Leu^11]SP] (H-[dR]PKPQQ[dW]F[dW]LL-NH2) | – | 4480 ± 860 | > 10000 | 1780 ± 50 | 1590 ± 30 | 1580 ± 81 | 8310 ± 154 | – | 2340 ± 80 | –
5 | CC(C)C[C@H](NC(=O)[C@H](CC(C)C)NC(=O)[C@@H](Cc1c[nH]c2ccccc12)NC(=O)[C@H](Cc1ccccc1)NC(=O)[C@@H](Cc1c[nH]c2ccccc12)NC(=O)[C@H](CCC(N)=O)NC(=O)[C@H](CCC(N)=O)NC(=O)[C@@H]1CCCN1C(=O)[C@H](CCCCN)NC(=O)[C@@H]1CCCN1C(=O)[C@H](N)CCCNC(=N)N)C(N)=O [Peptide 3, [D-Arg^1, D-Trp^7,9, Leu^11]SP] (H-[dR]PKPQQ[dW]F[dW]LL-NH2) | – | – | – | – | – | – | – | – | – | No act
6 | CCNC(=O)[C@H](CC(C)C)NC(=O)[C@H](Cc1c[nH]cn1)NC(=O)CNC(=O)[C@@H](NC(=O)[C@H](C)NC(=O)[C@H](Cc1c[nH]c2ccccc12)NC(=O)[C@H](CCC(N)=O)NC(=O)[C@H](N)Cc1ccccc1)C(C)C [Peptide 10, [D-Phe^6]Bn(6-13)Ethylamide] | – | > 10000 | > 10000 | 2.22 ± 0.13 | > 10000 | 52.5 ± 4.3 | 43.6 ± 3.6 | – | – | –
7 | CCCNC(=O)[C@H](CC(C)C)NC(=O)[C@H](Cc1c[nH]cn1)NC(=O)CNC(=O)[C@@H](NC(=O)[C@H](C)NC(=O)[C@H](Cc1c[nH]c2ccccc12)NC(=O)[C@H](CCC(N)=O)NC(=O)[C@H](N)Cc1ccc(O)cc1)C(C)C [Peptide 12, [D-Tyr^6]Bn-(6-13)Propylamide (PA)] | – | > 10000 | 1900 ± 300 | 1.41 ± 0.06 | > 10000 | 275 ± 13 | 40.7 ± 1.4 | – | – | –
8 | CCCNC(=O)[C@H](Cc1ccccc1)NC(=O)[C@H](Cc1c[nH]cn1)NC(=O)CNC(=O)[C@@H](NC(=O)[C@H](C)NC(=O)[C@H](Cc1c[nH]c2ccccc12)NC(=O)[C@H](CCC(N)=O)NC(=O)[C@H](N)Cc1ccccc1)[C@@H](C)O [Peptide 13, [D-Phe^6,Thr^10, Phe^13]Bn(6-13)PA] (H-[dF]QWATGHF-NHPr) | – | 1320 ± 30 | > 10000 | – | – | – | – | – | – | –
9 | CCCCNC(=O)[C@H](CC(C)C)NC(=O)[C@H](Cc1c[nH]cn1)NC(=O)CNC(=O)[C@@H](NC(=O)[C@H](C)NC(=O)[C@H](Cc1c[nH]c2ccccc12)NC(=O)[C@H](CCC(N)=O)NC(=O)[C@H](N)Cc1ccccc1)C(C)C [Peptide 14, [D-Phe^6]Bn(6-13)Butylamide (BA)] | – | 3110 ± 160 | 692 ± 27 | 1.02 ± 0.09 | 1780 ± 30 | 21.3 ± 1.6 | 15.5 ± 2 | – | – | –
10 | CCCCCCNC(=O)[C@H](CC(C)C)NC(=O)[C@H](Cc1cnc[nH]1)NC(=O)CNC(=O)[C@@H](NC(=O)[C@H](C)NC(=O)[C@H](Cc1c[nH]c2ccccc12)NC(=O)[C@H](CCC(N)=O)NC(=O)[C@H](N)Cc1ccccc1)C(C)C [Peptide 15, [D-Phe^6]Bn-(6-13)Hexylamide] | – | 8140 ± 400 | 3250 ± 60 | 2.19 ± 0.04 | > 10000 | 380 ± 31 | 204 ± 14 | – | – | –
11 | CCCCCCCNC(=O)[C@H](CC(C)C)NC(=O)[C@H](Cc1c[nH]cn1)NC(=O)CNC(=O)[C@@H](NC(=O)[C@H](C)NC(=O)[C@H](Cc1c[nH]c2ccccc12)NC(=O)[C@H](CCC(N)=O)NC(=O)[C@H](N)Cc1ccccc1)C(C)C [Peptide 16, [D-Phe^6]Bn(6-13)Heptylamide] | – | 6100 ± 630 | > 10000 | – | – | – | – | – | – | –
12 | COC(=O)[C@H]1CCCN1C(=O)[C@H](Cc1c[nH]cn1)NC(=O)[C@@H](C)NC(=O)[C@@H](NC(=O)[C@H](C)NC(=O)[C@H](Cc1c[nH]c2ccccc12)NC(=O)[C@H](Cc1c[nH]cn1)NC(=O)[C@H](N)Cc1c(F)c(F)c(F)c(F)c1F)C(C)C [Peptide 19, [D-F-5-Phe^6, His^7, D-Ala^11, D-Pro^13]Bn(6-13)ME] (H-[dPhe(F5)]HWAV[dA]H[dP]-OMe) | – | > 10000 | > 10000 | – | – | – | – | – | – | –
13 | CCCC[C@H](NC(=O)[C@H](Cc1ccccc1)NC(=O)[C@H](Cc1cnc[nH]1)NC(=O)CCNC(=O)[C@@H](NC(=O)[C@H](C)NC(=O)[C@H](Cc1c[nH]c2ccccc12)NC(=O)[C@H](CCC(N)=O)NC(=O)[C@H](N)Cc1ccc(O)cc1)C(C)C)C(N)=O [Peptide 35, [D-Tyr^6, β-Ala^11,Phe^13, Nle^14]Bn-(6-14), reference compound] (H-[dY]QWAV[βAla]HF[Nle]-NH2) | – | 0.31 ± 0.01 | 0.55 ± 0.03 | – | – | – | – | – | – | –
14 | NQWAVGHL-NH2 [Peptide 9, Bn(6-13)NH2] | – | > 10000 | > 10000 | – | – | – | – | – | – | –
